Read-outs that look alike come from different tables or passages of the source.
Legend:
Assay type in all cases: cell-based
[1] = test system: SARS-CoV-2 (USA-WA1/2020 variant); test: Virus CPE assay in Vero-E6 cells, USA-WA1/2020; settings: for EC50: USA-WA1/2020, Vero-E6, 4 days, read-out: EC50, inhibition of CPE; for inhibition at 3 µM: single treatment at 3 μM
[2] = test system: SARS-CoV-2 B.1.1.7/Alpha variant; test: Virus CPE assay in Vero-E6 cells, B.1.1.7; settings: Severe acute respiratory syndrome coronavirus 2, Vero C1008, 96 h; B.1.1.7, Vero-E6, 4 days; read-out: EC50, inhibition of CPE
[3] = test system: SARS-CoV-2 B.1.351/Beta variant; test: Virus CPE assay in Vero-E6 cells, B.1.351; settings: Severe acute respiratory syndrome coronavirus 2, Vero C1008, 96 h; B.1.351, Vero-E6, 4 days; read-out: EC50, inhibition of CPE
[4] = Severe acute respiratory syndrome coronavirus 2, Vero C1008, 96 h
[5] = Severe acute respiratory syndrome coronavirus 2, Vero C1008, 5 experiments of 8-fold replicates, read-out: percent of wells with CPE inhibited

| SMILES | EC50 [1, 4] [µM] | inhibition at 3 µM [1, 5] [%] | EC50 [2] [µM] | EC50 [3] [µM] | inhibition at 1 µM ([1]; Severe acute respiratory syndrome coronavirus 2, Vero C1008, single treatment at 1 μM, 5 experiments of 8-fold replicates, read-out: percent of wells with CPE inhibited) [%] | EC50 [1] [µM] |
| --- | --- | --- | --- | --- | --- | --- |
| O=C(CN1C(=O)[C@@H](NC(=O)c2ccccc2)COc2ccccc21)N[C@@H](C[C@@H]1CCNC1=O)C(=O)COC(=O)c1c(Cl)cccc1Cl [AP-8-011, (S)-3-(2-((S)-3-benzamido-4-oxo-3,4-dihydrobenzo[b][1,4]oxazepin-5(2H)-yl)acetamido)-2-oxo-4-((S)-2-oxopyrrolidin-3-yl)butyl 2,6-dichlorobenzoate] | 14.1 ± 3.6 |  |  |  |  |  |
| O=C(CN1C(=O)[C@@H](NC(=O)OCc2ccccc2)COc2ccccc21)N[C@@H](C[C@@H]1CCNC1=O)C(=O)COC(=O)c1c(Cl)cccc1Cl [AP-8-013, (S)-3-(2-((S)-3-(benzyloxycarbonylamino)-4-oxo-3,4-dihydrobenzo[b][1,4]oxazepin-5(2H)-yl)acetamido)-2-oxo-4-((S)-2-oxopyrrolidin-3-yl)butyl 2,6-dichlorobenzoate] | 12.8 ± 1.6 | 7.5 | 10.6 ± 1 | 5.5 ± 0.4 |  |  |
| COc1cccc2[nH]c(C(=O)N[C@@H](CC(C)C)C(=O)N[C@@H](C[C@@H]3CCNC3=O)C(=O)COC(=O)c3c(Cl)cccc3Cl)cc12 [AP-8-001, reference compound] | 1.2 ± 0.3 |  |  |  |  |  |
| CCC(CC)COC(=O)[C@H](C)N[P@](=O)(OC[C@H]1O[C@@](C#N)(c2ccc3c(N)ncnn23)[C@H](O)[C@@H]1O)Oc1ccccc1 [Remdesivir] | 3.1 ± 0.7 | 15 ± 9.2 |  |  | 2.5 ± 2.5 |  |
| CC(C)C[C@H](NC(=O)OCc1ccccc1)C(=O)N[C@@H](C[C@@H]1CCNC1=O)C(O)S(=O)(=O)O (stereo partly drawn) [GC-376] | 3.4 ± 0.9 |  | 1.3 ± 0.6 |  |  | 3.3 ± 1.2 |

Reference: patent US20250092029A1 (THE WISTAR INSTITUTE OF ANATOMY AND BIOLOGY, priority 2022, published 2025)
